Experimental data from patent US7192924B2, “Corticotropin releasing factor 2 receptor agonists” (priority 2002, dated 2007).
Ends that are not written are not given here. Peptide text beside a SMILES is read from it.

Assays:
CRF2R = molecular target: T1, CRF2R (Homo sapiens, UniProt Q13324); assay: CRF2R agonist activity (EC50, Emax), called comparative CRF binding; format: cell-based; conditions: read-out: CRF2R EC50
T1 sequence (Q13324 1-411): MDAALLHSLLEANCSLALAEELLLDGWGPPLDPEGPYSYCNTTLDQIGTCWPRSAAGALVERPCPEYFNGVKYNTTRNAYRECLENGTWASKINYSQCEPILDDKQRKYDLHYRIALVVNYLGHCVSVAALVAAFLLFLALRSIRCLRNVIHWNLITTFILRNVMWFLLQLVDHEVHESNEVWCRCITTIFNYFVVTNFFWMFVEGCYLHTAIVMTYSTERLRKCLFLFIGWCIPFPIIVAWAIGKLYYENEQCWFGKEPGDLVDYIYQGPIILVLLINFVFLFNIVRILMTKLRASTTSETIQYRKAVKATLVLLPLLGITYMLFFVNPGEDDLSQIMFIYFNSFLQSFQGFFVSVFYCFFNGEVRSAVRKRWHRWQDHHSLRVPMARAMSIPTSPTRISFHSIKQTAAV
From the text: (§1) The pharmacological activity and selectivity of the peptides of present invention can be determined using published test procedures. See, e.g, U.S. patent application Ser. No. 09/799,978. Because CRF2R and CRF1R are homologous proteins, it is expected that a certain proportion of agonists for CRF2R will also function as agonists of CRF1R. As discussed above, activation of CRF1R induces activation of the HPA axis since increased corticosteroid production leads to skeletal muscle atrophy. In most cases in which an increase in muscle mass or function is desired, it is not desirable to activate the HPA axis.
(§2) Because it is desirable to discriminate binding between CRF2R, as compared with CRF1R, the assays described above may be conducted using a cell, or membrane from a cell, which expresses only CRF2R or the assays can be conducted with a recombinant source of CRF2R. Cells expressing both forms of CRFR may be modified using homologous recombination to inactivate or otherwise disable the CRF1R gene. Alternatively, if the source of CRFR contains more than one CRFR type, the background signal produced by the receptor which is not of interest must be subtracted from the signal obtained in the assay. […] Known antagonists of CRFRs include, but, are not limited to, antalarmin (CRF1R selective), antisauvagine-30 (CRF2R selective) and astressin (nonselective for CRF1R/CRF2R).
(§3) Cell-based assays include the steps of contacting cells which express CRF1R or CRF2R with a peptide of the present invention or control and measuring activation of the CRFR by measuring the expression or activity of components of the CRFR signal transduction pathways.
(§4) As described in the background section above, CRFRs appear to couple through several different pathways including Gαs, Gαq or Gαi, depending upon the cell type. It is thought that agonist activation of CRFR allows the receptor to signal via any of these pathways, provided that the necessary pathway components are present in the particular cell type. Thus, to assay a particular peptide of the present invention for CRFR activation, an assay can use any of the signal transduction pathways as the readout even if the relevant cell type for treatment, in vivo, couples CRFR to skeletal muscle atrophy via a different pathway. […] Assays for measuring activation of these signaling pathways are known in the art.
(§5) For example, after contact with a peptide of the present invention, lysates of the cells can be prepared and assayed for induction of cAMP. cAMP is induced in response to Gαs activation. Because Gαs is activated by receptors other than CRFR and because a test peptide may be exerting its effect through CRFRs or by another mechanism, two control comparisons are relevant for determining whether the peptide increases levels of cAMP via activation of a CRFR. One control compares the cAMP level of cells contacted with the peptide and the cAMP level of cells contacted with a control compound (i.e., the vehicle in which the peptide is dissolved).
(§6) In one example, cAMP induction is measured with the use of DNA constructs containing the cAMP responsive element linked to any of a variety of reporter genes can be introduced into cells expressing CRFRs. Such reporter genes include, but are not limited to, chloramphenicol acetyltransferase (CAT), luciferase, glucuronide synthetase, growth hormone, fluorescent proteins (e.g., Green Fluorescent Protein), or alkaline phosphatase. Following exposure of the cells to the peptide, the level of reporter gene expression can be quantitated to determine the peptide's ability to increase cAMP levels and thus determine the peptide's ability to activate the CRFR.
(§7) In addition to using cells expressing full length CRFRs, cells can be engineered which express CRFRs containing the ligand binding domain of the receptor coupled to, or physically modified to contain, reporter elements or to interact with signaling proteins.

CRF1R = molecular target: T2, CRF1R (Homo sapiens, UniProt P34998); assay: CRF1R agonist activity (EC50, Emax), called comparative CRF binding; format: cell-based; conditions: read-out: CRF1R EC50
T2 sequence (P34998 24-415): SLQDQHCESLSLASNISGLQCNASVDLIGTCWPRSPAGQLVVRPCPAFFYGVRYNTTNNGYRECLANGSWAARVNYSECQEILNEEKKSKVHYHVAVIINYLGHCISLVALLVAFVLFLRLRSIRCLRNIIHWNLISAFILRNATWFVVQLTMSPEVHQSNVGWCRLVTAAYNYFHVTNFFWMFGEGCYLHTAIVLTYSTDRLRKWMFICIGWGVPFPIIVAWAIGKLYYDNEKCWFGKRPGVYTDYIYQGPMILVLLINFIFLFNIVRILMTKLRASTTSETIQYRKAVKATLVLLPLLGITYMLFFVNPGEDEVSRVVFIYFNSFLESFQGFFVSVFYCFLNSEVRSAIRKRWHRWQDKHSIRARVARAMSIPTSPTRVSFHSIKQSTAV
From the text: as §1, §2, §3, §4, §5, §6, §7

`CC[C@H](C)[C@H](NC(=O)[C@H](C)NC(=O)[C@H](CC(N)=O)NC(=O)[C@H](CCC(N)=O)NC(=O)[C@H](CCC(=O)O)NC(=O)[C@H](C)NC(=O)[C@H](CCCNC(=N)N)NC(=O)[C@H](CCC(=O)O)NC(=O)[C@H](CCCNC(=N)N)NC(=O)[C@H](CCC(N)=O)NC(=O)[C@H](CO)NC(=O)[C@H](CCC(N)=O)NC(=O)[C@@H](NC(=O)[C@H](CCCCN)NC(=O)[C@H](CCC(=O)O)NC(=O)[C@H](CC(C)C)NC(=O)[C@H](CCC(=O)O)NC(=O)[C@H](CC(C)C)NC(=O)[C@H](CC(C)C)NC(=O)[C@@H](NC(=O)[C@H](CCCNC(=N)N)NC(=O)[C@H](CC(C)C)NC(=O)[C@H](CC(C)C)NC(=O)[C@H](CC(C)C)NC(=O)[C@H](CC(C)C)NC(=O)[C@@H]1CCCN1C(=O)[C@H](CC(C)C)NC(=O)[C@H](CC(=O)O)NC(=O)[C@@H](NC(=O)[C@H](CO)NC(=O)[C@H](CC(C)C)NC(=O)[C@H](CO)NC(=O)[C@@H]1CCCN1)[C@@H](C)CC)[C@@H](C)O)[C@@H](C)O)C(=O)N[C@H](C(=O)N[C@@H](Cc1ccccc1)C(=O)N[C@@H](C)C(=O)N[C@@H](CO)C(=O)N[C@H](C(N)=O)C(C)C)[C@@H](C)CC` [compound 344] (H-PSLSIDLPLLLLRTLLELEKTQSQRERAEQNAIIFASV-NH2) gave an EC50 (CRF2R) of 4.3 nM and an EC50 (CRF1R) of 650 nM.

Compound `CC[C@H](C)[C@H](N)C(=O)N[C@H](C(=O)N[C@@H](CC(C)C)C(=O)N[C@@H](CO)C(=O)N[C@@H](CC(C)C)C(=O)N[C@@H](CC(=O)O)C(=O)N[C@H](C(=O)N[C@H](C(=O)N[C@H](C(=O)NCC(=O)N[C@@H](CC(C)C)C(=O)N[C@@H](CC(C)C)C(=O)N[C@@H](CCC(N)=O)C(=O)N[C@H](C(=O)N[C@@H](CC(C)C)C(=O)N[C@@H](CC(C)C)C(=O)N[C@@H](CCC(=O)O)C(=O)N[C@@H](CCC(N)=O)C(=O)N[C@@H](C)C(=O)N[C@@H](CCCNC(=N)N)C(=O)N[C@@H](C)C(=O)N[C@@H](CCCNC(=N)N)C(=O)N[C@@H](C)C(=O)N[C@@H](C)C(=O)N[C@@H](CCCNC(=N)N)C(=O)N[C@@H](CCC(=O)O)C(=O)N[C@@H](CCC(N)=O)C(=O)N[C@@H](C)C(=O)N[C@H](C(=O)N[C@H](C(=O)N[C@@H](CC(N)=O)C(=O)N[C@@H](C)C(=O)N[C@@H](CCCNC(=N)N)C(=O)N[C@H](C(=O)N[C@@H](CC(C)C)C(=O)N[C@@H](C)C(=O)N[C@@H](CCCNC(=N)N)C(=O)N[C@H](C(N)=O)C(C)C)[C@@H](C)CC)[C@@H](C)O)[C@@H](C)O)[C@@H](C)CC)[C@@H](C)CC)C(C)C)C(C)C)C(C)C` [compound 214] (H-IVLSLDVVIGLLQILLEQARARAAREQATTNARILARV-NH2; N-terminus assumed) has an EC50 (CRF2R) of 74.3 nM and an EC50 (CRF1R) of at least 100 nM.

With “SQEPPISLDLTFHLLREVLEQARARAAREQATTNARILARV-NH2 [compound 157]” the EC50 (CRF2R) was 42 nM and the EC50 (CRF1R) was at least 100 nM.

`CC[C@H](C)[C@H](NC(=O)[C@H](C)NC(=O)[C@H](CC(N)=O)NC(=O)[C@H](CCC(N)=O)NC(=O)[C@H](CCC(=O)O)NC(=O)[C@H](C)NC(=O)[C@H](CCCNC(=N)N)NC(=O)[C@H](CCC(=O)O)NC(=O)[C@H](CCCNC(=N)N)NC(=O)[C@H](CCC(N)=O)NC(=O)[C@H](CO)NC(=O)[C@H](CCC(N)=O)NC(=O)[C@@H](NC(=O)[C@H](CCCNC(=N)N)NC(=O)[C@H](C)NC(=O)[C@H](CC(C)C)NC(=O)[C@H](CCC(=O)O)NC(=O)[C@H](CC(C)C)NC(=O)[C@H](CC(C)C)NC(=O)[C@@H](NC(=O)[C@H](CCCNC(=N)N)NC(=O)[C@H](CC(C)C)NC(=O)[C@H](CC(C)C)NC(=O)[C@H](Cc1ccccc1)NC(=O)[C@H](CC(C)C)NC(=O)[C@@H]1CCCN1C(=O)[C@H](CC(C)C)NC(=O)[C@H](CC(=O)O)NC(=O)[C@@H](NC(=O)[C@H](CO)NC(=O)[C@H](CC(C)C)NC(=O)[C@H](CO)NC(=O)[C@@H]1CCCN1C(=O)[C@H](CC(N)=O)NC(=O)[C@@H](N)CC(=O)O)[C@@H](C)CC)[C@@H](C)O)[C@@H](C)O)C(=O)N[C@H](C(=O)N[C@@H](Cc1ccccc1)C(=O)N[C@@H](C)C(=O)N[C@@H](CO)C(=O)N[C@H](C(N)=O)C(C)C)[C@@H](C)CC` [compound 178] (H-DNPSLSIDLPLFLLRTLLELARTQSQRERAEQNAIIFASV-NH2; N-terminus assumed) showed an EC50 (CRF2R) of 5.17 nM and an EC50 (CRF1R) of at least 1000 nM.

`CC[C@H](C)[C@H](NC(=O)[C@H](CCCNC(=N)N)NC(=O)[C@H](C)NC(=O)[C@H](CC(N)=O)NC(=O)[C@H](CCC(N)=O)NC(=O)[C@H](CCC(=O)O)NC(=O)[C@H](C)NC(=O)[C@H](CCCNC(=N)N)NC(=O)[C@H](CCC(=O)O)NC(=O)[C@H](CCCNC(=N)N)NC(=O)[C@H](CCC(N)=O)NC(=O)[C@H](CO)NC(=O)[C@H](CCC(N)=O)NC(=O)[C@@H](NC(=O)[C@H](CCCNC(=N)N)NC(=O)[C@H](C)NC(=O)[C@H](CC(C)C)NC(=O)[C@H](CCC(=O)O)NC(=O)[C@H](CC(C)C)NC(=O)[C@H](CC(C)C)NC(=O)[C@@H](NC(=O)[C@H](CCCNC(=N)N)NC(=O)[C@H](CC(C)C)NC(=O)[C@H](CC(C)C)NC(=O)[C@H](Cc1ccccc1)NC(=O)[C@H](CC(C)C)NC(=O)[C@@H]1CCCN1C(=O)[C@H](CC(C)C)NC(=O)[C@H](CC(=O)O)NC(=O)[C@@H](NC(=O)[C@H](CO)NC(=O)[C@H](CC(C)C)NC(=O)[C@H](CO)NC(=O)[C@@H]1CCCN1C(=O)[C@H](CC(N)=O)NC(=O)[C@@H](N)CC(=O)O)[C@@H](C)CC)[C@@H](C)O)[C@@H](C)O)C(=O)N[C@@H](Cc1ccccc1)C(=O)N[C@@H](C)C(=O)N[C@@H](CCCNC(=N)N)C(=O)N[C@H](C(N)=O)C(C)C` [compound 329] (H-DNPSLSIDLPLFLLRTLLELARTQSQRERAEQNARIFARV-NH2; N-terminus assumed) was tested, and the EC50 (CRF2R) was 5.15 nM and the EC50 (CRF1R) was at least 1000 nM.
